# *1 amine or outer side, *2 acyl side, *3 side chain or, on linkers, in order; H or OH if unused. Where a SMILES comes first, the peptide text is derived from it. The star is where a group is joined. ACC = NC(=O)Cc1cc(=O)oc2cc(N*)ccc12; AMC = Cc1cc(=O)oc2cc(N*)ccc12; Suc = O=C(CCC(=O)[*:2])[*:1]
# Legend:
# [1] = molecular target: T1, human immunoproteasome core particle (i20S) (Homo sapiens, UniProt P20618+P28062); assay: Purified proteasome activity assay with fluorogenic substrates, SDS-activated i20S; format: biochemical
# T1 construct: purchased Boston Biochem E-370
# Protocol: Non-prime-side substrate specificity profiling was performed with a complete, diverse library of 160,000 fluorogenic substrates containing the general structure acetyl-P4-P3-P2-P1-(7-amino-4-carbamoylmethylcourmarin, ACC) ([Harris et al., 2000]). For each sub-library, 10 nM human i20S or c20S underwent SDS pre-activation for 1 hr at room temperature in assay buffer (20 mM Tris, pH 8.0, 0.5 mM EDTA) containing 0.03% SDS. […] Activity assays were carried out over 1 hr following two-fold sample dilution in the same 0.03% SDS-containing buffer that also contained a 250 μM final concentration of PS-SCL substrate pool. Activity was recorded in black 96-well round bottom plates (Costar, COrning, NY) using a BioTek Synergy H4 Hybrid Multi-Mode Microplate Reader set to λex = 380 nm and λem = 460 nm (gain = 63). Initial velocity in relative fluorescence units per second (RFU/s) was calculated using a linear fit of the progress curves with Gen5 software v.2.03.
# Activity assays with individual fluorogenic substrates were carried out as described above for the PS-SCL assays using final concentrations of 5 nM SDS-activated i20S or c20S and 10 μM substrate except where noted below. The commercial substrates Suc-LLVY-AMC, Ac-WLA-AMC (Boston Biochem, S-330), and Ac-ANW-AMC (Boston Biochem, S-320) were used as supplied. To convert cleaved substrate RFU to free AMC or ACC dye concentration, calibration curves were prepared through total enzymatic hydrolysis of ACC- or AMC-containing peptides that had been quantified through amino acid analysis (Alphalyse, Inc.). Substrate selectivity of PA28α- and SDS-activated 20S proteasomes was compared following 1 hr pre-incubation at room temperature either in the presence of 0.03% SDS or with 12 molar equivalents of PA28α activator in the absence of SDS. For substrate selectivity assays with mixed, purified proteasomes, i20S and c20S underwent individual SDS pre-activation prior to assaying with 5 nM final concentration of pooled 20S. Proteasome ratio assays were performed with 10 μM EWFW-ACC, 30 μM iso-VQA-ACC, and 30 μM Suc-LLVY-AMC. All activity measurements were recorded on the BioTek plate reader described above using λex = 380 nm and λem = 460 nm (gain = 63) for ACC substrates and Suc-LLVY-AMC; 345 nm and λem = 445 nm (gain = 63) for Ac-WLA-AMC and Ac-ANW-AMC; and λex = 328 nm and λem = 393 nm (gain = 75) for the GEWHWPS IQ substrate. Michaelis-Menten calculations were performed using a non-linear fit in Prism v.6.0.
# LMP7 / β5 = assay: MOLT-4 lysate proteasome activity assay, IC50, LLVY-AMC substrate; format: biochemical, human; settings: 1 hr pre-incubation, 30 μM Suc-LLVY-AMC, read-out: IC50, detection method LLVY-AMC, subunit LMP7 / β5
# Protocol: Three lysates containing varied proteasome ratios (whole blood, PBMCs, and the MOLT-4 cell line) were assayed in the absence or presence of proteasome inhibitors as described above. Lysates were generated by washing cells in PBS and lysing the resulting cell pellet in a two-fold greater volume of cold lysis buffer (20 mM Tris, pH 8.0, 5 mM EDTA). Total protein concentration was determined using the BCA Protein Assay Kit (Thermo Scientific Pierce) with bovine serum albumin (BSA) as the protein standard. […] Activity assays were carried out over 1 hr following two-fold sample dilution in the same assay buffer containing final concentrations of 10 μM NH2-EWFW-ACC, 30 μM iso-VQA-ACC, or 30 μM Suc-LLVY-AMC. Activity measurements were recorded on the BioTek plate reader described above in 384-well plates using either λex = 380 nm and λem = 460 nm (gain = 85) for the ACC substrates or λex = 345 nm and λem = 445 nm (gain = 85) for the AMC substrate.
# β5 = molecular target: T2, β5 (Homo sapiens, UniProt P20618+P28074); assay: MOLT-4 lysate proteasome activity assay, IC50, iso-VQA-ACC substrate; format: biochemical; settings: commercial β5 substrate
# T2 construct: For IC50 measurements with the MOLT-4 lysate; endogenous in cells; host or cells: MOLT-4 lysate
# Protocol: Three lysates containing varied proteasome ratios (whole blood, PBMCs, and the MOLT-4 cell line) were assayed in the absence or presence of proteasome inhibitors as described above. Lysates were generated by washing cells in PBS and lysing the resulting cell pellet in a two-fold greater volume of cold lysis buffer (20 mM Tris, pH 8.0, 5 mM EDTA). Total protein concentration was determined using the BCA Protein Assay Kit (Thermo Scientific Pierce) with bovine serum albumin (BSA) as the protein standard.
# SUP-B15 cell line [2] = assay: Cellular proteasome inhibition and recovery assay, SUP-B15; format: cell-based, human; settings: SUP-B15, one-hour pulse, 24 hr time course
# Protocol: (§1) SUP-B15 and MOLT-4 cells were seeded at 2 × 10^6/mL in RPMI media containing 10% FBS 24 hr prior to inhibition assays; PBMC vials were thawed and seeded at 4.4 × 10^6/mL in RPMI media with 10% FBS 3 hr prior to inhibition assays. Cells were diluted 2-fold with serum-free RPMI media containing 2X inhibitor or vehicle control (0.5% DMSO and 5% FBS final). Inhibitor treatments were carried out for 1 hr at 37°C, and to remove unbound inhibitor, cells were immediately washed three times (SUP-B15 and PBMCs) or six times (MOLT-4) with D-PBS for 1 hr time points or RPMI media containing 5% FBS for subsequent time points. Cells were incubated at 37°C for the duration of the time course and washed two times in D-PBS to remove serum upon harvest. The cell pellets were flash-frozen in liquid N2 prior to storage at −80°C.
# (§2) Cell pellets were thawed and incubated for 30 min on ice in non-denaturing lysis buffer (20 mM Tris, pH 8.0, 5 mM EDTA) or RIPA buffer that contained cOmplete^TM EDTA-free inhibitor cocktail (Roche, Pleasanton, CA). Total protein concentration in supernatants was determined using a Bradford Protein Assay Kit (Thermo Scientific Pierce) or BCA Protein Assay Kit (Cell Signaling Technology), respectively, with BSA as the protein standard. Lysate activity assays were performed following 2-fold dilution of 0.1–0.4 mg/mL lysate into assay buffer as described above. […]
# primary human PBMCs = assay: Cellular proteasome inhibition and recovery assay, PBMCs; format: cell-based; settings: primary human PBMCs from healthy donors, one-hour pulse, 24 hr
# Protocol: as §1, §2
# PSMB8 (LMP7) mRNA = assay: qRT-PCR of PSMB8 (LMP7) mRNA after ONX 0914 pulse treatment; format: cell-based, human; settings: SUP-B15, MOLT-4 and PBMCs after one-hour pulse, normalized to GAPDH
# Protocol: as §1
# Total RNA was extracted from cells using the RNeasy Plus Mini kit (Qiagen, Germantown, MD). The quantity and quality of RNA was confirmed by absorption measurements at 260 and 280 nm. […] Efficiencies for each primer/probe set were calculated from a serial dilution of Human Reference Total RNA (Agilent) and were >95%. Relative quantification of gene expression was calculated with the comparative cycle threshold method, normalizing for GAPDH expression levels.
# Nrf1 = Nrf1 western blot after ONX 0914 pulse treatment; format: cell-based, human; settings: RIPA lysates from the cell lines and PBMCs
# Protocol: as §1, §2
# SUP-B15 cell line [3] = assay: Ubiquitin western blot after one-hour inhibitor pulse treatment; format: cell-based, human; settings: ONX 0914 200 nM or PR-825 100 or 125 nM
# Protocol: as §1, §2
# [4] = test system: rheumatoid arthritis mouse model; design: method as in Muchamuel et al., 2009; settings: at a significantly lower dose than bortezomib or CFZ; ref Muchamuel et al., 2009; cited from earlier work
# [5] = iP over cP, Michaelis-Menten analysis
compound,measurement,setting,value
NC(=O)Cc1cc(=O)oc2cc(NC(=O)[C@H](Cc3c[nH]c4ccccc34)NC(=O)[C@H](Cc3c[nH]cn3)NC(=O)[C@H](Cc3c[nH]c4ccccc34)NC(=O)[C@@H](N)CCC(=O)O)ccc12 [EWHW-ACC] (H-EWHW-{ACC}),Ratio Vmax (i20S/c20S),[1],6.0
same,Ratio kcat/Km (i20S/c20S),[1],8.4
same,iP selectivity,"[1]; iP over cP, 10 μM substrate concentration",4.5 fold
same,selectivity at Vmax,[1]; [5],6 fold
Cc1cc(C(=O)N[C@H](C(=O)N[C@@H](CCC(N)=O)C(=O)N[C@@H](C)C(=O)Nc2ccc3c(CC(N)=O)cc(=O)oc3c2)C(C)C)no1 [iso-VQA-ACC],Ratio Vmax (i20S/c20S),[1],0.28
same,Ratio kcat/Km (i20S/c20S),[1],0.33
NC(=O)Cc1cc(=O)oc2cc(NC(=O)[C@H](Cc3c[nH]c4ccccc34)NC(=O)[C@H](Cc3ccccc3)NC(=O)[C@H](Cc3c[nH]c4ccccc34)NC(=O)[C@@H](N)CCC(=O)O)ccc12 [EWFW-ACC] (H-EWFW-{ACC}),improvement in Km for the iP,[1]; compared to the parent substrate EWHW-ACC,7 fold
same,Ratio Vmax (i20S/c20S),[1],16
same,Ratio kcat/Km (i20S/c20S),[1],4.0
same,selectivity at Vmax,[1]; [5],16 fold
"CC(C)C[C@H](NC(=O)[C@H](CCc1ccccc1)NC(=O)CN1CCOCC1)C(=O)N[C@@H](Cc1ccccc1)C(=O)N[C@@H](CC(C)C)C(=O)[C@@]1(C)CO1 [CFZ, carfilzomib]",IC50,LMP7 / β5,53 nM
CC(=O)N[C@@H](C)C(=O)N[C@@H](CC(N)=O)C(=O)N[C@@H](Cc1c[nH]c2ccccc12)C(=O)Nc1ccc2c(C)cc(=O)oc2c1 [Ac-ANW-AMC] (Ac-Ala-Asn-Trp-{AMC}),Ratio Vmax (i20S/c20S),[1],12
same,Ratio kcat/Km (i20S/c20S),[1],6.0
Cc1cc(=O)oc2cc(NC(=O)[C@H](Cc3ccc(O)cc3)NC(=O)[C@@H](NC(=O)[C@H](CC(C)C)NC(=O)[C@H](CC(C)C)NC(=O)CCC(=O)O)C(C)C)ccc12 [LLVY-AMC] (Suc-LLVY-{AMC}),selectivity at Vmax,"[1]; iP and cP, direction not given",2.0 fold
same,ability to distinguish iP and cP in defined mixtures of each proteasome,"[1]; mixed ratios of purified proteasomes, 30 μM substrate",unable to distinguish between the two proteasomes
Ac-Trp-Leu-Ala-{AMC},detection of β5 activity in MOLT-4 lysate,β5,unable to specifically detect proteasome activity
COc1ccc(C[C@H](NC(=O)[C@H](C)NC(=O)CN2CCOCC2)C(=O)N[C@@H](Cc2ccccc2)C(=O)[C@]2(C)CO2)cc1 [ONX 0914],recovery of LMP7 activity after irreversible inhibition,SUP-B15 cell line [2],rapid recovery
same,recovery of LMP7 activity after irreversible inhibition,primary human PBMCs,confirmed in primary human PBMCs
same,PSMB8 mRNA level,PSMB8 (LMP7) mRNA,increased PSMB8 mRNA levels
same,IC50,LMP7 / β5,256 nM
same,processed Nrf1 (p110) level (western blot),Nrf1,accumulation of processed Nrf1 (p110)
same,global ubiquitinated protein level (immunoblot),SUP-B15 cell line [3],global accumulation of ubiquitinated protein
same,disease progression,[4],attenuate disease progression

# Reference: PMC5705213, “Immunoproteasome functions explained by divergence in cleavage specificity and regulation” (eLife, 2017)
